Data as given in patent publication US20190175690A1, “COMPOSITIONS AND METHODS FOR CARDIAC REPAIR” (CHILDREN'S MEDICAL CENTER CORPORATION, priority 2016, published 2019).

Key:
[1] = system: VGLL4-mediated TEAD1 degradation; assay: VGLL4-mediated TEAD1 degradation in co-transfected 293T cells (immunoblot); assay type: cell-based; conditions: 293T cells co-transfected with TEAD1 and VGLL4, inhibitors for 6 hours
Description: HA-VGLL4 was cloned downstream of TetO promoter. pEF1α::rtTA was used to express rtTA. The expression of HA-VGLL4 will be activated in the presence of both Dox and rtTA. […] 293T cells were co-transfected with pEF1α::rtTA and pTetO::HA-Vgll4. Twenty-four (24) hours after transfection, cells were treated with […] Dox for different hours. Immunoblotting was carried out to detect the expression of HA-VGLL4. […] Mouse Tead1 specific primers were used to measure relative Tead1-Dendra2 mRNA level by qRT-PCR. FIG. 8D depicts an immunoblot showing TEAD1 degradation is dependent on cysteine proteases and is independent of the proteasome. 293T cells were first co-transfected with TEAD1^fb and Vgll4-GFP plasmids. 1 day after transfection, cells were treated with indicated inhibitors for 6 hours. Dimethyl sulfoxide (DMSO, 0.1%) was used as control vehicle. β-tubulin was used as loading control.
Major pathways for protein degradation can include the proteasome and cysteine, serine, and threonine peptidases. To determine if these candidate pathways are involved in VGLL4-mediated TEAD1 degradation, the effect of MG132 (a universal proteasome inhibitor (Lee et al., 1998)), leupeptin (an inhibitor of serine and threonine peptidases (Umezawa, 1976)) and E64 (an inhibitor specific to cysteine proteases (Barrett et al., 1982)) on VGLL4-mediated TEAD1 degradation was studied.

[2] = system: TEAD1-Dendra2; assay: pulse-labeled TEAD1-Dendra2 live cell imaging in 293T cells; assay type: cell-based; conditions: photoconverted TEAD1-Dendra2, Dox-induced VGLL4
Description: (§1) FIG. 7A is an immunoblot showing VGLL4 overexpression decreased TEAD1 protein level. Different doses of TEAD1 plasmids (indicated in μg) were co-transfected with 1.6 μg VGLL4-GFP plasmid. Cells were collected for western blot 24 hours after transfection. FIGS. 7B-7C show the generation and validation of TEAD1-Dendra2 construct. Tead1-Dendra2 plasmid was transfected into 293T cells. Western blot confirmed expression of TEAD1-Dendra2 fusion protein (FIG. 7B). TEAD1-Dendra2 merge fusion protein was green before illumination with 405 nm light. […] Cells were analyzed at the indicated time points. […] FIG. 7E is a graph showing the quantification of TEAD1-Dendra2 protein levels in FIG. 7D. *P<0.05. n=3. […] Relative red fluorescence intensity (RFI) was monitored for 20 minutes by taking one image per minute. n=6. […] Twenty-four (24) hours after transfection, cells were treated with Dox for the indicated number of hours, when cell extracts were analyzed for Firefly and Renilla luciferase activity. […]
DOX-induced VGLL4 expression was combined with live cell imaging of TEAD1-Dendra2 to specifically probe the effect of VGLL4 on TEAD1 stability. […] In the absence of VGLL4, TEAD1-Dendra2 protein fluorescence intensity dropped by 10% during the first 10 minutes, and then became relatively stable. […]

[3] = system: TEAD1-YAP transcriptional activity; assay: 8xGTIIC-Luci luciferase reporter assay in 293T cells with DOX-induced VGLL4; assay type: cell-based
Description: as §1
The data indicates an additional mechanism, in which VGLL4 binding to TEAD1 promotes its degradation and thereby reduces the amount available to interact with YAP. To test additional mechanisms, the TEAD1 luciferase reporter 8xGTIIC-Luci (Dupont et al., 2011) was used as a read out of TEAD1-YAP transcriptional activity. […]

[4] = system: high salt diet induced heart failure; conditions: Cheng et al., 2008; cited from earlier work
[5] = system: myocardial infarction; conditions: Dong et al., 2007; cited from earlier work
[6] = clinical testing, Chen et al., 2013; cited from earlier work
[7] = biological target: TEAD1-Dendra2 fusion protein (mouse) (UniProt P30051)
[8] = biological target: Dendra2
[9] = biological target: TEAD1-Dendra2 fusion protein (mouse) (UniProt P30051); remark: listed apart in the source
[10] = biological target: His-TEAD1[211-427] (recombinant murine TEAD1 residues 211-427 with polyhistidine tag, from E. coli) (mouse) (UniProt P30051); assay: photonic crystal nanobeam sensor, His-TEAD1[211-427] immobilized, curve fitted to the Langmuir equation

For `CC(C)C[C@H](NC(=O)[C@H]1O[C@@H]1C(=O)O)C(=O)NCCCCN=C(N)N` (relative stereo) [E64, L-trans-Epoxysuccinyl-leucylamido(4-guanidino)butane], the “VGLL4-mediated reduction of TEAD1 steady-state levels” value [1] was “reduced VGLL4-mediated reduction of TEAD1 steady-state levels”, the “destabilizing effect of VGLL4 on TEAD1-Dendra2” value [2] was “reduced the destabilizing effect of VGLL4 on TEAD1-Dendra2” and the “reduction of TEAD1 transcriptional activity caused by VGLL4 induction” value [3] was “did not completely abrogate”. The luciferase reporter activity ([3]; 8 hours after DOX treatment, P<0.05) was “significantly increased reporter activity”, the “high salt diet induced heart failure” value [4] was “attenuated high salt diet induced heart failure” and the “beneficial effect in myocardial infarction model” value [5] was “did not show a beneficial effect”.

For `CCOC(=O)[C@H]1O[C@@H]1C(=O)N[C@@H](CC(C)C)C(=O)NCCC(C)C` [E64d], the safety profile [6] is listed as “good safety profile”.

With `CC(=O)N[C@@H](CC(C)C)C(=O)N[C@@H](CC(C)C)C(=O)N[C@H](C=O)CCCNC(=N)N` [leupeptin] the “VGLL4-mediated reduction of TEAD1 steady-state levels” value [1] was “reduced VGLL4-mediated reduction of TEAD1 steady-state levels”.

Work on “HA-VGLL4 (doxycycline-inducible, pTetO::HA-VGLL4)” yielded a steady-state TEAD1-Dendra2 protein level after Dox (immunoblot) [7] of 50%, a red fluorescence intensity of photoconverted Dendra2 (time lapse imaging) [8] of 5% and a red fluorescence intensity of photoconverted TEAD1-Dendra2 (time lapse imaging) [9] of 18%.

“synthetic non-acetylated VGLL4 TDU domain peptide with V5 epitope (from UniProt Q14135-4)” gave a Kd [10] of 3.1 nM.
